Tests used:
Test in all cases: relative viability (nuclei count vs DMSO), 5 days (fraction); higher = more cells survive
Sunitinib + Palbociclib = compound: CCN(CC)CCNC(=O)c1c(C)[nH]c(/C=C2\C(=O)Nc3ccc(F)cc32)c1C [Sunitinib] + CC(=O)c1c(C)c2cnc(Nc3ccc(N4CCNCC4)cn3)nc2n(C2CCCC2)c1=O [Palbociclib] (partner 0.5 µM)
How it was run: (§1)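 Lung cancer cell lines were pin-tool dosed in 1536-well plates on the day after seeding, with either a lone drug or a fixed anchor-drug dose plus five library-drug doses (not always all listed) in √10 steps. Nuclei were counted on 4× images after 5 days. Relative viability is the ratio of treated-well to vehicle-well nuclei counts, with each value a median of duplicate plates.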

Sunitinib + Bortezomib = compound: CCN(CC)CCNC(=O)c1c(C)[nH]c(/C=C2\C(=O)Nc3ccc(F)cc32)c1C [Sunitinib] + CC(C)C[C@H](NC(=O)[C@H](Cc1ccccc1)NC(=O)c1cnccn1)B(O)O [Bortezomib] (partner 0.002 µM)
How it was run: as §1

Sunitinib + Alpelisib = compound: CCN(CC)CCNC(=O)c1c(C)[nH]c(/C=C2\C(=O)Nc3ccc(F)cc32)c1C [Sunitinib] + Cc1nc(NC(=O)N2CCC[C@H]2C(N)=O)sc1-c1ccnc(C(C)(C)C(F)(F)F)c1 [Alpelisib] (partner 2 µM)
How it was run: as §1

Sunitinib + Dasatinib = compound: CCN(CC)CCNC(=O)c1c(C)[nH]c(/C=C2\C(=O)Nc3ccc(F)cc32)c1C [Sunitinib] + Cc1nc(Nc2ncc(C(=O)Nc3c(C)cccc3Cl)s2)cc(N2CCN(CCO)CC2)n1 [Dasatinib] (partner 0.075 µM)
How it was run: as §1

Cell Line | relative viability (Sunitinib + Palbociclib; first compound 0.02 µM) | relative viability (Sunitinib + Palbociclib; first compound 0.06325 µM) | relative viability (Sunitinib + Palbociclib; first compound 0.2 µM) | relative viability (Sunitinib + Palbociclib; first compound 0.6325 µM) | relative viability (Sunitinib + Palbociclib; first compound 2 µM) | relative viability (Sunitinib + Bortezomib; first compound 0.02 µM) | relative viability (Sunitinib + Bortezomib; first compound 0.06325 µM) | relative viability (Sunitinib + Bortezomib; first compound 0.2 µM) | relative viability (Sunitinib + Bortezomib; first compound 0.6325 µM) | relative viability (Sunitinib + Bortezomib; first compound 2 µM) | relative viability (Sunitinib + Alpelisib; first compound 0.02 µM) | relative viability (Sunitinib + Alpelisib; first compound 0.06325 µM) | relative viability (Sunitinib + Alpelisib; first compound 0.2 µM) | relative viability (Sunitinib + Alpelisib; first compound 0.6325 µM) | relative viability (Sunitinib + Alpelisib; first compound 2 µM) | relative viability (Sunitinib + Dasatinib; first compound 0.02 µM) | relative viability (Sunitinib + Dasatinib; first compound 0.06325 µM) | relative viability (Sunitinib + Dasatinib; first compound 0.2 µM) | relative viability (Sunitinib + Dasatinib; first compound 0.6325 µM) | relative viability (Sunitinib + Dasatinib; first compound 2 µM)
NCI-H23 | 0.469 | 0.599 | 0.488 | 0.532 | 0.49 | 0.871 | 1.45 | 1.17 | 1.44 | 0.945 | 0.568 | 0.747 | 0.751 | 0.828 | 0.692 | 0.658 | 0.787 | 0.959 | 0.955 | 0.794
LXF-289 | 0.599 | 0.621 | 0.597 | 0.619 | 0.603 | 0.981 | 0.958 | 1.06 | 1.04 | 1.01 | 1.01 | 1.02 | 1.13 | 1.12 | 1.04 | 0.248 | 0.25 | 0.237 | 0.204 | 0.271
NCI-H1437 | 0.294 | 0.347 | 0.305 | 0.346 | 0.329 | 0.567 | 0.643 | 0.514 | 0.494 | 0.551 | 0.949 | 0.974 | – | 1.01 | 0.905 | 0.489 | 0.418 | 0.478 | 0.39 | 0.412
NCI-H727 | 0.598 | 0.697 | 0.671 | 0.616 | 0.667 | 0.89 | 1.07 | 0.805 | 1.05 | 0.817 | 0.532 | 0.546 | 0.647 | 0.559 | 0.537 | 0.343 | 0.432 | 0.472 | 0.404 | 0.275
RERF-LC-KJ | 1.07 | 1.05 | 1.03 | 0.996 | 1.21 | 0.994 | – | 1.26 | 1.03 | 1.09 | 0.775 | 0.826 | 0.932 | – | 0.789 | 0.768 | 0.897 | 0.832 | 0.821 | 0.847
PC-3 [JPC-3] | 0.539 | 0.561 | 0.566 | 0.56 | 0.602 | 0.836 | 0.88 | 0.893 | 0.869 | 0.732 | 1.1 | 1.07 | 1.03 | 1.07 | 0.99 | 1.04 | 0.903 | 1.19 | 1.05 | 0.967
PC-14 | 0.509 | 0.462 | 0.562 | 0.527 | 0.474 | 0.946 | 0.858 | 0.99 | 0.878 | 0.726 | 0.95 | 0.874 | 1.05 | 1.08 | 0.908 | 0.291 | 0.232 | 0.269 | 0.385 | 0.261
201T | 0.347 | 0.363 | 0.336 | 0.352 | 0.378 | 1.08 | 1.09 | 1.13 | 1.09 | 1.08 | 1.04 | – | 1.06 | – | 1.02 | 0.542 | 0.56 | 0.57 | 0.571 | 0.528

From the supplement of paper PMC10307832
